Laboratory results reported in patent publication US20100173910A1, “TRIAMINOPYRIMIDINE CYCLOBUTENEDIONE DERIVATIVES USED AS PHOSPHATASE CDC25 INHIBITORS” (IPDRN PHSTMS D.S.S., priority 2007, published 2010).

Assays:
[1] = tested on: DU 145 (human prostate carcinoma cells); test: Anti-proliferative activity, DU 145 cells (WST1 colorimetric test); format: cell-based; conditions: DU-145, 96 h, 96 hours treatment, up to 10 μM, nested upper bounds, read-out: IC50 for proliferation of the DU 145 cell lines
Procedure: (§1) ii) Characterisation of Anti-Proliferative Activity:
(§2) By way of an example, the effect of treating two human cell lines MIA PaCa-2 and DU 145 with the compounds of the examples described hereinbefore will be studied. The cell lines DU 145 (human prostate carcinoma cells) and MIA PaCa-2 (human pancreatic carcinoma cells) were obtained from the American Tissue Culture Collection (Rockville, Md., USA). A 96-well plate was inoculated on day 0 with cells in 80 μl of Dulbecco's modified Eagle's medium (Gibco-Brl, Cergy-Pontoise, France) with 10% heat-inactivated foetal calf serum (Gibco-Brl, Cergy-Pontoise, France), 50,000 units/l of penicillin and 50 mg/l of streptomycin (Gibco-Brl, Cergy-Pontoise, France) and 2 mM of glutamine (Gibco-Brl, Cergy-Pontoise, France). The cells were treated on day 1 for 96 hours with increasing concentrations of each test compound up to 10 μM. At the end of this period, cell proliferation is quantified by means of a colorimetric test based on cleavage of the tetrazolium salt WST1 by the mitochondrial dehydrogenases in the viable cells, resulting in formation of formazan (Boehringer Mannheim, Meylan, France). These tests are performed in duplicate with 8 determinations per concentration tested. For each test compound, the values within the linear part of the sigmoid curve were subjected to linear regression analysis and used to estimate the IC50 inhibitory concentration. The products are solubilised in dimethylsulfoxide (DMSO) at a concentration of 10^−2 M and used in culture with a final DMSO concentration of 0.1%.

[2] = target: T1, purified recombinant CDC25C enzyme (MBP-CDC25C protein) (Homo sapiens, UniProt P30307); test: Phosphatase activity of the purified recombinant CDC25C enzyme (OMFP dephosphorylation, fluorescence); format: biochemical; conditions: OMFP 500 μM, 4 hours at 30° C., three independent experiments; nested upper bounds; read-out: IC50 for the phosphatase activity of the purified recombinant CDC25-C enzyme
T1 construct: made in house
T1 sequence (P30307 1-473): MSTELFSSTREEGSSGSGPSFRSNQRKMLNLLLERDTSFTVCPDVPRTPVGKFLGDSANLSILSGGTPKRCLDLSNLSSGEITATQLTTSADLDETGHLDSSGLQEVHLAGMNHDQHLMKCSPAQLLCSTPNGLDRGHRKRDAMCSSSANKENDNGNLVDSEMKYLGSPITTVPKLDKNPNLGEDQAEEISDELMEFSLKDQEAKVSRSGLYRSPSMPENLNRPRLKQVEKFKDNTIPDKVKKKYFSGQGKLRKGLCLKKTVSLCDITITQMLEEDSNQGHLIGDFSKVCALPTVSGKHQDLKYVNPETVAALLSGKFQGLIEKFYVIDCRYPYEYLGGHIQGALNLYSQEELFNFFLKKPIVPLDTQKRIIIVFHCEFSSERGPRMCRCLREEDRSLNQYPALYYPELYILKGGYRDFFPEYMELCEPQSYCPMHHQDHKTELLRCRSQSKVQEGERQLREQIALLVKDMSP
Procedure: i) Determination of the Phosphatase Activity of the Purified Recombinant CDC25C Enzyme:
The phosphatase activity of the MBP-CDC25C protein is evaluated through its dephosphorylation of 3-O-methylfluorescein-phosphate (OMFP) to form 3-O-methylfluorescein (OMF), determining the fluorescence of the reaction product at 475 nm. This assay can be used to identify inhibitors of the recombinant CDC25 enzyme. The preparation of the MBP-CDC25C fusion protein is described in the PCT patent application published under the number WO 01/44467.
The reaction is performed in 384-well plates in a final volume of 50 μl. The MBP-CDC25C protein (prepared as described hereinabove) is stored in the following elution buffer: 20 mM Tris-HCl pH 7.4; 250 mM NaCl; 1 mM EDTA; 1 mM dithiothreitol (DTT); 10 mM maltose. It is diluted to a concentration of 60 μM in the following reaction buffer: 50 mM Tris-HCl pH 8.2; 50 mM NaCl; 1 mM DTT; 20% glycerol. The background noise is determined using with the buffer without adding the enzyme. The products are tested at decreasing concentrations from 40 μM. The reaction is initiated by the addition of OMFP solution to a final concentration of 500 μM (prepared immediately before use from a 12.5 mM stock solution in 100% DMSO (Sigma #M2629)). After 4 hours at 30° C. in a disposable 384-well plate, the fluorescence measured at OD 475 nm is read on a Victor^2 plate reader (EGG-Wallac). The concentration that produces 50% inhibition of the enzyme reaction is calculated from three independent experiments. Only the values that fall within the linear part of the sigmoid curve are used for the linear regression analysis.

[3] = tested on: MIA PaCa-2 (human pancreatic carcinoma cells); test: Anti-proliferative activity, MIA PaCa-2 cells (WST1 colorimetric test); format: cell-based; conditions: MIA PaCa-2, 96 h, 96 hours treatment, up to 10 μM, nested upper bounds, read-out: IC50 for proliferation of the MIA PaCa-2 cell lines
Procedure: as §1, §2

Row | SMILES | IC50 [1] [µM] | melting point [°C] | IC50 [2] [µM] | IC50 [3] [µM]
1 | CC(=O)c1ccc(Nc2c(NCCNc3cc(N4CCCC4)nc(N4CCCC4)n3)c(=O)c2=O)cc1 [Example 19, 3-[(4-acetylphenyl)amino]-4-({2-[(2,6-dipyrrolidin-1-ylpyrimidin-4-yl)amino]ethyl}amino)cyclobut-3-ene-1,2-dione] | ≤ 10 | 186 to 188 | ≤ 1 | ≤ 10
2 | COc1cccc(Nc2c(NCCNc3cc(N4CCCC4)nc(N4CCCC4)n3)c(=O)c2=O)c1 [Example 20, 3-({2-[(2,6-dipyrrolidin-1-ylpyrimidin-4-yl)amino]ethyl}amino)-4-[(3-methoxyphenyl)amino]cyclobut-3-ene-1,2-dione] | ≤ 10 | 205 to 207 | ≤ 5 | ≤ 10
3 | CN(Cc1ccc(Nc2c(NCCNc3cc(N4CCCC4)nc(N4CCCC4)n3)c(=O)c2=O)cc1)C(=O)OC(C)(C)C [Example 21, tert-butyl (4-{[2-({2-[(2,6-dipyrrolidin-1-ylpyrimidin-4-yl)amino]ethyl}amino)-3,4-dioxocyclobut-1-en-1-yl]amino}benzyl)methylcarbamate] | ≤ 10 | – | ≤ 1 | ≤ 10
4 | O=c1c(NCCNc2cc(N3CCCC3)nc(N3CCCC3)n2)c(Nc2ccc(C3CCCCC3)cc2)c1=O [Example 23, 3-[(4-cyclohexylphenyl)amino]-4-({2-[(2,6-dipyrrolidin-1-ylpyrimidin-4-yl)amino]ethyl}amino)cyclobut-3-ene-1,2-dione] | ≤ 10 | 218 to 220 | ≤ 5 | ≤ 10
5 | CCCc1ccc(Nc2c(NCCNc3cc(N4CCCC4)nc(N4CCCC4)n3)c(=O)c2=O)cc1 [Example 24, 3-({2-[(2,6-dipyrrolidin-1-ylpyrimidin-4-yl)amino]ethyl}amino)-4-[(4-propylphenyl)amino]cyclobut-3-ene-1,2-dione] | ≤ 10 | – | ≤ 1 | ≤ 10
6 | CC(C)(C)OC(=O)NCc1ccc(Nc2c(NCCNc3cc(N4CCCC4)nc(N4CCCC4)n3)c(=O)c2=O)cc1 [Example 25, tert-butyl (4-{[2-({2-[(2,6-dipyrrolidin-1-ylpyrimidin-4-yl)amino]ethyl}amino)-3,4-dioxocyclobut-1-en-1-yl]amino}benzyl)carbamate] | ≤ 10 | 176 to 180 | ≤ 1 | ≤ 10
7 | O=c1c(NCCNc2cc(N3CCCC3)nc(N3CCCC3)n2)c(Nc2ccc3c(c2)OCO3)c1=O [Example 26, 3-(1,3-benzodioxol-5-ylamino)-4-({2-[(2,6-dipyrrolidin-1-ylpyrimidin-4-yl)amino]ethyl}amino)cyclobut-3-ene-1,2-dione] | ≤ 10 | 180 to 190 | ≤ 1 | ≤ 10
8 | CC(C)(C)OC(=O)NCCc1ccc(Nc2c(NCCNc3cc(N4CCCC4)nc(N4CCCC4)n3)c(=O)c2=O)cc1 [Example 29, tert-butyl [2-(4-{[2-({2-[(2,6-dipyrrolidin-1-ylpyrimidin-4-yl)amino]ethyl}amino)-3,4-dioxocyclobut-1-en-1-yl]amino}phenyl)ethyl]carbamate] | ≤ 10 | 216 to 218 | ≤ 1 | ≤ 10
9 | O=c1c(NCCNc2cc(N3CCCC3)nc(N3CCCC3)n2)c(Nc2ccc(C(F)(F)F)cc2)c1=O [Example 32, 3-({2-[(2,6-dipyrrolidin-1-ylpyrimidin-4-yl)amino]ethyl}amino)-4-{[4-(trifluoromethyl)phenyl]amino}cyclobut-3-ene-1,2-dione] | ≤ 10 | > 250 | ≤ 1 | –
10 | O=c1c(NCCNc2cc(N3CCCC3)nc(N3CCCC3)n2)c(Nc2ccc([N+](=O)[O-])cc2)c1=O [Example 34, 3-({2-[(2,6-dipyrrolidin-1-ylpyrimidin-4-yl)amino]ethyl}amino)-4-[(4-nitrophenyl)amino]cyclobut-3-ene-1,2-dione] | ≤ 10 | – | ≤ 1 | –
11 | O=c1c(NCCNc2cc(N3CCCC3)nc(N3CCCC3)n2)c(Nc2ccc(Cl)c(F)c2)c1=O [Example 36, 3-[(4-chloro-3-fluorophenyl)amino]-4-({2-[(2,6-dipyrrolidin-1-ylpyrimidin-4-yl)amino]ethyl}amino)cyclobut-3-ene-1,2-dione] | ≤ 10 | – | ≤ 1 | –

Results, then the compound that gave them:

Row | IC50 [1] [µM] | melting point [°C] | IC50 [2] [µM] | IC50 [3] [µM] | SMILES
12 | ≤ 10 | 246 to 248 | ≤ 1 | ≤ 10 | O=c1c(NCCNc2cc(N3CCCC3)nc(N3CCCC3)n2)c(NCc2ccc(Cl)cc2)c1=O [Example 5, 3-[(4-chlorobenzyl)amino]-4-({2-[(2,6-dipyrrolidin-1-ylpyrimidin-4-yl)amino]ethyl}amino)cyclobut-3-ene-1,2-dione]
13 | ≤ 10 | 144 to 146 | ≤ 5 | ≤ 10 | CN(CCNc1cc(N2CCCC2)nc(N2CCCC2)n1)CCNc1c(Nc2ccc(Cl)cc2)c(=O)c1=O [Example 8, 3-[(4-chlorophenyl)amino]-4-({2-[{2-[(2,6-dipyrrolidin-1-ylpyrimidin-4-yl)amino]ethyl}(methyl)amino]ethyl}amino)cyclobut-3-ene-1,2-dione]
14 | ≤ 10 | 216 to 218 | ≤ 15 | ≤ 10 | O=c1c(NCCNc2cc(N3CCCC3)nc(N3CCCC3)n2)c(Nc2ccc(Cl)c(C(F)(F)F)c2)c1=O [Example 10, 3-{[4-chloro-3-(trifluoromethyl)phenyl]amino}-4-({2-[(2,6-dipyrrolidin-1-ylpyrimidin-4-yl)amino]ethyl}amino)cyclobut-3-ene-1,2-dione]
15 | ≤ 10 | 192 to 194 | ≤ 1 | – | O=c1c(NCCNc2cc(N3CCCC3)nc(N3CCCC3)n2)c(Nc2cc(F)cc(F)c2)c1=O [Example 15, 3-[(3,5-difluorophenyl)amino]-4-({2-[(2,6-dipyrrolidin-1-ylpyrimidin-4-yl)amino]ethyl}amino)cyclobut-3-ene-1,2-dione]
16 | ≤ 10 | 209 to 211 | ≤ 5 | ≤ 10 | O=c1c(NCCNc2cc(N3CCCC3)nc(N3CCCC3)n2)c(Nc2cccc(Cl)c2)c1=O [Example 17, 3-[(3-chlorophenyl)amino]-4-({2-[(2,6-dipyrrolidin-1-ylpyrimidin-4-yl)amino]ethyl}amino)cyclobut-3-ene-1,2-dione]
17 | ≤ 10 | 235 to 237 | ≤ 1 | ≤ 10 | COc1ccc(Nc2c(NCCNc3cc(N4CCCC4)nc(N4CCCC4)n3)c(=O)c2=O)cc1 [Example 18, 3-({2-[(2,6-dipyrrolidin-1-ylpyrimidin-4-yl)amino]ethyl}amino)-4-[(4-methoxyphenyl)amino]cyclobut-3-ene-1,2-dione]
